Measured values published in US7138361B2, “Herbicidal heterocycles” (E. I. du Pont de Nemours and Company, priority 2000, dated 2006).

Tests used:
Assay type in all cases: in vivo
[1] = test system: Surinam grass (Brachiaria decumbens); assay: Test B postemergence
Source text: (§1) Seeds selected from barnyardgrass (Echinochloa crus-galli), Surinam grass (Brachiaria decumbens), cocklebur (Xanthium strumarium), corn (Zea mays), crabgrass (Digitaria sanguinalis), giant foxtail (Setaria faberii), lambsquarters (Chenopodium album), morning glory (Ipomoea hederacea), pigweed (Amaranthus retroflexus), rice (Oryza saliva) and velvetleaf (Abutilon theophrasti) were planted and treated preemergence with test chemicals formulated in a non-phytotoxic solvent mixture which included a surfactant.
(§2) At the same time, plants selected from these crop and weed species and also blackgrass (Alopecurus myosuroides), wheat (Triticum aestivum) and wild oat (Avena fatua) were treated with postemergence applications of test chemicals formulated in the same manner. Plants ranged in height from 2 to 18 cm (1- to 4-leaf stage) for postemergence treatments. Plant species in the flooded paddy test consisted of rice (Oryza saliva), smallflower flatsedge (Cyperus difformis), duck salad (Heteranthera limosa) and barnyardgrass (Echinochloa crus-galli) grown to the 2-leaf stage for testing. Treated plants and controls were maintained in a greenhouse for 13 to 15 days, after which time all species were compared to controls and visually evaluated. Plant response ratings, summarized in Table B, are based on a scale of 0 to 100 where 0 is no effect and 100 is complete control. A dash (-) response means no test result.

[2] = test system: barnyardgrass (Echinochloa crus-galli); assay: Test B postemergence
Source text: as §1, §2

[3] = test system: blackgrass (Alopecurus myosuroides); assay: Test B postemergence
Source text: as §1, §2

[4] = test system: cocklebur (Xanthium strumarium); assay: Test B postemergence
Source text: as §1, §2

[5] = test system: corn (Zea mays); assay: Test B postemergence
Source text: as §1, §2

[6] = test system: crabgrass (Digitaria sanguinalis); assay: Test B postemergence
Source text: as §1, §2

[7] = test system: giant foxtail (Setaria faberii); assay: Test B postemergence
Source text: as §1, §2

[8] = test system: lambsquarters (Chenopodium album); assay: Test B postemergence
Source text: as §1, §2

[9] = test system: morning glory (Ipomoea hederacea); assay: Test B postemergence
Source text: as §1, §2

[10] = test system: pigweed (Amaranthus retroflexus); assay: Test B postemergence
Source text: as §1, §2

[11] = test system: velvetleaf (Abutilon theophrasti); assay: Test B postemergence
Source text: as §1, §2

[12] = test system: wheat (Triticum aestivum); assay: Test B postemergence
Source text: as §1, §2

[13] = test system: wild oat (Avena fatua); assay: Test B postemergence
Source text: as §1, §2

[14] = test system: Surinam grass (Brachiaria decumbens); assay: Test B preemergence
Source text: as §1, §2

[15] = test system: barnyardgrass (Echinochloa crus-galli); assay: Test B preemergence
Source text: as §1, §2

[16] = test system: cocklebur (Xanthium strumarium); assay: Test B preemergence
Source text: as §1, §2

[17] = test system: corn (Zea mays); assay: Test B preemergence
Source text: as §1, §2

[18] = test system: crabgrass (Digitaria sanguinalis); assay: Test B preemergence
Source text: as §1, §2

[19] = test system: giant foxtail (Setaria faberii); assay: Test B preemergence
Source text: as §1, §2

[20] = test system: lambsquarters (Chenopodium album); assay: Test B preemergence
Source text: as §1, §2

[21] = test system: morning glory (Ipomoea hederacea); assay: Test B preemergence
Source text: as §1, §2

[22] = test system: pigweed (Amaranthus retroflexus); assay: Test B preemergence
Source text: as §1, §2

[23] = test system: rice (Oryza saliva); assay: Test B preemergence
Source text: as §1, §2

[24] = test system: velvetleaf (Abutilon theophrasti); assay: Test B preemergence
Source text: as §1, §2

[25] = test system: barnyardgrass (Echinochloa crus-galli); assay: Test C flooded paddy test; conditions: for Barnyardgrass plant response rating: Flooded Paddy, scale 0 to 100, 0 no effect, 100 complete control; for Plant response rating, Barnyardgrass: flooded paddy test, scale 0 to 100 (0 no effect, 100 complete control)
In short: (§3)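 Visual injury score, 0 (no effect) to 100 (complete control), relative to controls. Paddy plants treated at 2-leaf stage; greenhouse hold 12–14 d before rating.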

[26] = test system: duck salad (Heteranthera limosa); assay: Test C flooded paddy test; conditions: for Ducksalad plant response rating: Flooded Paddy, scale 0 to 100, 0 no effect, 100 complete control; for Plant response rating, Ducksalad: flooded paddy test, scale 0 to 100 (0 no effect, 100 complete control)
In short: as §3

[27] = test system: rice (Oryza saliva); assay: Test C flooded paddy test; conditions: for Rice plant response rating: Flooded Paddy, scale 0 to 100, 0 no effect, 100 complete control; for Plant response rating, Rice: flooded paddy test, scale 0 to 100 (0 no effect, 100 complete control)
In short: as §3

[28] = test system: smallflower flatsedge (Cyperus difformis); assay: Test C flooded paddy test; conditions: for Flatsedge plant response rating: Flooded Paddy, scale 0 to 100, 0 no effect, 100 complete control; for Plant response rating, Flatsedge: flooded paddy test, scale 0 to 100 (0 no effect, 100 complete control)
In short: as §3

[29] = Rate 125 g/ha, scale 0 to 100, 0 no effect, 100 complete control
[30] = Rate 500 g/ha, scale 0 to 100, 0 is no effect, 100 is complete control, 13 to 15 days
[31] = Preemergence, Rate 500 g/ha, scale 0 to 100, 0 no effect, 100 complete control
[32] = preemergence, Rate 125 g/ha, scale of 0 to 100 where 0 is no effect and 100 is complete control, 13 to 15 days
[33] = Rate 125 g/ha, scale 0 (no effect) to 100 (complete control), 13 to 15 days

CCCCC(CCCC)c1ccn(C2SCN(c3cccc(OC(F)(F)F)c3)C2=O)n1 (stereo not drawn) [Compound 115]
Plant response rating, Surinam grass [1, 29]: 20
Plant response rating, Surinam grass [1, 30]: 100
Plant response rating, Barnyardgrass [2, 29]: 0
Plant response rating, Barnyardgrass [2, 30]: 0
Plant response rating, Blackgrass [3, 29]: 0
Plant response rating, Blackgrass [3, 30]: 0
Plant response rating, Cocklebur [4, 29]: 20
Plant response rating, Cocklebur [4, 30]: 70
Plant response rating, Corn [5, 29]: 20
Plant response rating, Corn [5, 30]: 20
Plant response rating, Crabgrass [6, 29]: 20
Plant response rating, Crabgrass [6, 30]: 30
Plant response rating, Foxtail, Giant [7, 29]: 0
Plant response rating, Foxtail, Giant [7, 30]: 0
Plant response rating, Lambsquarters [8, 29]: 0
Plant response rating, Lambsquarters [8, 30]: 0
Plant response rating, Morningglory [9, 29]: 0
Plant response rating, Morningglory [9, 30]: 0
Plant response rating, Pigweed [10, 29]: 50
Plant response rating, Pigweed [10, 30]: 60
Plant response rating, Velvetleaf [11, 29]: 0
Plant response rating, Velvetleaf [11, 30]: 0
Plant response rating, Wheat [12, 29]: 40
Plant response rating, Wheat [12, 30]: 50
Plant response rating, Wild Oat [13, 29]: 30
Plant response rating, Wild Oat [13, 30]: 60
Plant response rating, Surinam grass [14, 31]: 0
Plant response rating, Surinam grass [14, 32]: 0
Plant response rating, Barnyardgrass [15, 31]: 0
Plant response rating, Barnyardgrass [15, 32]: 0
Plant response rating, Cocklebur [16, 31]: 0
Plant response rating, Cocklebur [16, 32]: 0
Plant response rating, Corn [17, 31]: 0
Plant response rating, Corn [17, 32]: 0
Plant response rating, Crabgrass [18, 31]: 0
Plant response rating, Crabgrass [18, 32]: 0
Plant response rating, Foxtail, Giant [19, 31]: 0
Plant response rating, Foxtail, Giant [19, 32]: 0
Plant response rating, Lambsquarters [20, 31]: 0
Plant response rating, Lambsquarters [20, 32]: 0
Plant response rating, Morningglory [21, 31]: 0
Plant response rating, Morningglory [21, 32]: 0
Plant response rating, Pigweed [22, 31]: 0
Plant response rating, Pigweed [22, 32]: 0
Plant response rating, Rice [23, 31]: 0
Plant response rating, Rice [23, 32]: 0
Plant response rating, Velvetleaf [24, 31]: 0
Plant response rating, Velvetleaf [24, 32]: 0
Barnyardgrass plant response rating ([25]; Rate 250 g/ha): 0
Barnyardgrass plant response rating ([25]; Rate 500 g/ha): 0
Plant response rating, Barnyardgrass ([25]; Rate 62 g/ha): 0
Plant response rating, Barnyardgrass ([25]; Rate 125 g/ha): 0
Ducksalad plant response rating ([26]; Rate 250 g/ha): 0
Ducksalad plant response rating ([26]; Rate 500 g/ha): 0
Plant response rating, Ducksalad ([26]; Rate 62 g/ha): 0
Plant response rating, Ducksalad ([26]; Rate 125 g/ha): 0
Rice plant response rating ([27]; Rate 250 g/ha): 0
Rice plant response rating ([27]; Rate 500 g/ha): 0
Plant response rating, Rice ([27]; Rate 62 g/ha): 0
Plant response rating, Rice ([27]; Rate 125 g/ha): 0
Flatsedge plant response rating ([28]; Rate 250 g/ha): 0
Flatsedge plant response rating ([28]; Rate 500 g/ha): 0
Plant response rating, Flatsedge ([28]; Rate 62 g/ha): 0
Plant response rating, Flatsedge ([28]; Rate 125 g/ha): 0

CC(C)(C)c1ccn(C2OCN(c3cccc(OC(F)(F)F)c3)C2=O)n1 (stereo not drawn) [Compound 66]
Plant response rating, Surinam grass [1, 33]: 0
Plant response rating, Surinam grass [1, 30]: 30
Plant response rating, Barnyardgrass [2, 33]: 100
Plant response rating, Barnyardgrass [2, 30]: 100
Plant response rating, Blackgrass [3, 33]: 0
Plant response rating, Blackgrass [3, 30]: 0
Plant response rating, Cocklebur [4, 33]: 0
Plant response rating, Cocklebur [4, 30]: 20
Plant response rating, Corn [5, 33]: 0
Plant response rating, Corn [5, 30]: 0
Plant response rating, Crabgrass [6, 33]: 30
Plant response rating, Crabgrass [6, 30]: 100
Plant response rating, Foxtail, Giant [7, 33]: 0
Plant response rating, Foxtail, Giant [7, 30]: 60
Plant response rating, Lambsquarters [8, 33]: 90
Plant response rating, Lambsquarters [8, 30]: 90
Plant response rating, Morningglory [9, 33]: 0
Plant response rating, Morningglory [9, 30]: 0
Plant response rating, Pigweed [10, 33]: 0
Plant response rating, Pigweed [10, 30]: 0
Plant response rating, Velvetleaf [11, 33]: 20
Plant response rating, Velvetleaf [11, 30]: 20
Plant response rating, Wheat [12, 33]: 0
Plant response rating, Wheat [12, 30]: 0
Plant response rating, Wild Oat [13, 33]: 0
Plant response rating, Wild Oat [13, 30]: 0
Plant response rating, Surinam grass [14, 31]: 20
Plant response rating, Surinam grass [14, 32]: 20
Plant response rating, Barnyardgrass [15, 31]: 100
Plant response rating, Barnyardgrass [15, 32]: 100
Plant response rating, Cocklebur [16, 31]: 0
Plant response rating, Corn [17, 31]: 0
Plant response rating, Corn [17, 32]: 0
Plant response rating, Crabgrass [18, 31]: 40
Plant response rating, Crabgrass [18, 32]: 0
Plant response rating, Foxtail, Giant [19, 31]: 40
Plant response rating, Foxtail, Giant [19, 32]: 20
Plant response rating, Lambsquarters [20, 31]: 100
Plant response rating, Lambsquarters [20, 32]: 100
Plant response rating, Morningglory [21, 31]: 20
Plant response rating, Pigweed [22, 31]: 100
Plant response rating, Pigweed [22, 32]: 100
Plant response rating, Rice [23, 31]: 20
Plant response rating, Rice [23, 32]: 0
Plant response rating, Velvetleaf [24, 31]: 20
Plant response rating, Velvetleaf [24, 32]: 0
Barnyardgrass plant response rating ([25]; Rate 250 g/ha): 100
Barnyardgrass plant response rating ([25]; Rate 500 g/ha): 100
Plant response rating, Barnyardgrass ([25]; Rate 62 g/ha): 70
Plant response rating, Barnyardgrass ([25]; Rate 125 g/ha): 100
Ducksalad plant response rating ([26]; Rate 250 g/ha): 100
Ducksalad plant response rating ([26]; Rate 500 g/ha): 100
Plant response rating, Ducksalad ([26]; Rate 62 g/ha): 30
Plant response rating, Ducksalad ([26]; Rate 125 g/ha): 90
Rice plant response rating ([27]; Rate 250 g/ha): 50
Rice plant response rating ([27]; Rate 500 g/ha): 100
Plant response rating, Rice ([27]; Rate 62 g/ha): 0
Plant response rating, Rice ([27]; Rate 125 g/ha): 0
Flatsedge plant response rating ([28]; Rate 250 g/ha): 100
Flatsedge plant response rating ([28]; Rate 500 g/ha): 100
Plant response rating, Flatsedge ([28]; Rate 62 g/ha): 100
Plant response rating, Flatsedge ([28]; Rate 125 g/ha): 100
